From patent US8962674B2 (Tokyo Institute of Technology, priority 2006, dated 2015)

What was measured:
[1] = biological target: aggregated Aβ1-42 (Homo sapiens (Human), UniProt P05067); assay: Aβ1-42 degradation assay on pre-formed aggregates, thioflavin T fluorescence (Test Example 3); type: biochemical; settings: aggregated Aβ, 1 hr at 37° C., read-out: IC50 (Aβ1-42 aggregate degradation, Table 2 head)
Protocol: Aβ1-42 (Peptide Institute) was dissolved in a 0.1% NH3 solution at a concentration of 60 μM, and incubated for 24 hr at 37° C. to form the aggregation. 25 μM of the aggregated Aβ solution diluted by 100 mM phosphate buffer (pH 7.4) and the compound dilution containing 2% DMSO were mixed in equal amount. The mixtures were incubated for 1 hr at 37° C. in a black 96-well plate. After incubation, 6 μM thioflavin T (Sigma) in 100 mM of glycine-NaOH buffer, pH 8.5, was added, and fluorescence was measured for excitation at 440 nm and emission at 486 nm. The solution with DMSO only, instead of the compound solution, was used as a negative control. The activity was calculated as a percentage of the negative control.

[2] = test system: cerebral cortex cells of embryonic Wistar rat; assay: Cytoprotection from Aβ1-42-induced cell cytotoxicity, MTT (Test Example 4); type: cell-based; settings: compound 24 hr, then 5 μM Aβ1-42 for 48 hr
Protocol: Cytoprotection from Aβ1-42-Induced Cell Cytotoxicity
Cerebral cortex was obtained from 19-20 day-old embryonic Wistar rat. The tissue was minced, dissociated using scalpel blades and Pasteur pipette, and centrifuged at 100 rpm. Precipitated cells were filtered using […] cell strainer, and single cells were prepared. These cells were suspended in Eagle's Minimum Essential Medium (EMEM) containing 10% Fetal bovine serum, and plated into 48-well tissue culture plates (Becton Dickinson) at 200 μL/well and 1.7×10^5 cells/cm^2. Cultures were incubated at 37° C. in a humidified atmosphere of 5% CO2.
After 3, 5, and 7 days in culture, the medium was replaced.
After 9 days, compounds were dissolved in DMSO and diluted in culture media so that the final concentration of DMSO in culture media was 0.1%, and each solution was added to each well at […] for 24 hr. The control solution contained 0.1% DMSO.
After 24 hr, Aβ1-42 was dissolved in a 0.1% NH3 solution at a concentration of 500 μM and diluted in culture media to a final concentration of 5 μM, and the Aβ solution was added to each well at […] for 48 hr. After 48 hr, cultures were treated with 0.5% MTT solution (Nacalai Tesque) for 35 min. The MTT solution was replaced with 2-propanol (200 μL), and the culture plates were shook to dissolve formazan. Absorption of the solution was measured at 570 nm.

[3] = biological target: Aβ1-42 (Homo sapiens (Human), UniProt P05067); assay: Aβ aggregation inhibition assay, thioflavin T fluorescence (Test Example 2); type: biochemical; settings: 24 hr at 37° C.
Protocol: Aβ3-42 aggregation Inhibition Assay
Aβ1-42 was dissolved in a 0.1% NH3 solution at a concentration of 100 μM and centrifuged for 1.5 hr at 200,000 g, and the supernatant are used in the assay. […] The mixtures were incubated for 24 hr at 37° C. in a black 96-well plate.

Aβ1-42, sequence (P05067 672-713): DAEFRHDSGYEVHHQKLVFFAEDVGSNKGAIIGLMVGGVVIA
aggregated Aβ1-42, sequence (P05067 672-713): as above

SMILES: COc1cc(/C=C/C(=O)CC(=O)/C=C/c2ccc(S(C)(=O)=O)cc2)ccc1O [CU005, (1E,6E)-1-(4-hydroxy-3-methoxyphenyl)-7-(4-methanesulfonylphenyl)hepta-1,6-diene-3,5-dione]
- IC50 [1]: 3.3 µM
- melting point: 117 to 120 °C

SMILES: O=C(/C=C/c1ccc(O)cc1)CC(=O)/C=C/c1cc(O)cc(O)c1 [CU092, (1E,6E)-1-(3,5-dihydroxyphenyl)-7-(4-hydroxyphenyl)hepta-1,6-diene-3,5-dione]
- MEC, minimal effective concentration (cytoprotection) [2]: 3.0 µM
- melting point: 238 to 241 °C

SMILES: Cc1ccc(/C=C/C(=O)CC(=O)/C=C/c2ccc(O)cc2)cc1C [CU056, (1E,6E)-1-(3,4-dimethylphenyl)-7-(4-hydroxyphenyl)hepta-1,6-diene-3,5-dione]
- IC50 [3]: 0.28 µM
- melting point: 150 to 152 °C

SMILES: O=C(/C=C/c1ccc(O)cc1)CC(=O)/C=C/c1cccc(O)c1 [CU078, (1E,6E)-1-(3-hydroxyphenyl)-7-(4-hydroxyphenyl)hepta-1,6-diene-3,5-dione]
- IC50 [3]: 0.09 µM
- MEC, minimal effective concentration (cytoprotection) [2]: 0.1 µM
- melting point: 217 °C

SMILES: COc1cc(N(C)C)ccc1/C=C/C(=O)CC(=O)/C=C/c1ccc(O)cc1 [CU153, (1E,6E)-1-(4-dimethylamino-2-methoxyphenyl)-7-(4-hydroxyphenyl)hepta-1,6-diene-3,5-dione]
- IC50 [3]: 0.88 µM
- melting point: 100 to 105 °C

SMILES: COc1cc(/C=C/C(=O)CC(=O)/C=C/c2ccc(N(C)C)c3ccccc23)ccc1O [CU019, (1E,6E)-1-(4-dimethylaminonaphthalen-1-yl)-7-(4-hydroxy-3-methoxyphenyl)hepta-1,6-diene-3,5-dione]
- IC50 [1]: 0.4 µM

SMILES: COc1ccc(O)cc1/C=C/C(=O)CC(=O)/C=C/c1ccc(O)cc1 [CU177, (1E,6E)-1-(4-hydroxyphenyl)-7-(5-hydroxy-2-methoxyphenyl)hepta-1,6-diene-3,5-dione]
- IC50 [3]: 1.1 µM
- melting point: 183 to 186 °C

SMILES: COc1cc(/C=C/C(=O)CC(=O)/C=C/c2ccc[nH]2)ccc1O [CU022, (1E,6E)-1-(4-hydroxy-3-methoxyphenyl)-7-(1H-pyrrol-2-yl)hepta-1,6-diene-3,5-dione]
- IC50 [1]: 5.3 µM
- melting point: 83 to 87 °C
